Laboratory results published in patent publication US6630343B1, “Hepatitis C virus culture system” (priority 1999, dated 2003).
Starred links: 1 amine or outer side, 2 acyl side, 3 side chain; linkers in the order of their positions; H or OH if unused. Positions of bridges follow the written chain, without caps; N, C: chain ends. Non-standard residues stand in square brackets, D forms with d. Residues, ends and D or L forms follow the SMILES beside them. Chains are numbered I, II in the order given. Actinocin(9to1) = Cc1c2oc3c(C)ccc(C(=O)[*:1])c3nc-2c(C(=O)[*:2])c(N)c1=O; NMeV = CN[C@H](C(=O)O)C(C)C; Sar = CNCC(=O)O

How the values were obtained:
HCV RNA = assay: [3H] uridine labeling of RNA in the presence of dactinomycin: HCV-RNA replication; format: cell-based, hepatitis C virus; conditions: 4 μg/ml dactinomycin, 16 hrs, clone 9-13
Description: (§1) To confirm this assumption, cells were incubated with [^3H] uridine in the presence of dactinomycin, the radioactively labeled RNAs were extracted, separated by means of denaturing agarose gel electrophoresis and analyzed with the aid of a common Bio-Imager using a [^3H]-sensitive screen. For this purpose approx. 5×10^5 cells of the clones 9-13 and 8-1 were incubated at a time with 100 μCi [^3H] uridine for 16 hrs. in the absence (−) or presence (+) of 4 μg/ml of dactinomycin (Dact). Following this labeling reaction the total RNA was prepared and analyzed by means of formaldehyde-agarose gel electrophoresis. Only 1/10 of the total RNA is illustrated in the first two lanes. The radioactively labeled RNA was visualized using a BAS-2500 Bio-Imager (Fuji).

[1] = test system: Huh 7 cell clones 9-13 and 8-1; assay: [3H] uridine labeling of RNA in the presence of dactinomycin: cellular RNA synthesis; format: cell-based, human; conditions: 4 μg/ml dactinomycin, 16 hrs
Description: as §1

## Cc1c2oc3c(C)ccc(C(=O)N[C@@H]4C(=O)N[C@H](C(C)C)C(=O)N5CCC[C@H]5C(=O)N(C)CC(=O)N(C)[C@@H](C(C)C)C(=O)O[C@@H]4C)c3nc-2c(C(=O)N[C@@H]2C(=O)N[C@H](C(C)C)C(=O)N3CCC[C@H]3C(=O)N(C)CC(=O)N(C)[C@@H](C(C)C)C(=O)O[C@@H]2C)c(N)c1=O [dactinomycin] (I: T[dV]P[Sar][NMeV] / II: T[dV]P[Sar][NMeV]; ester I:1-I:C, II:1-II:C; linker I:N-II:N via Actinocin(9to1))
HCV RNA
  influence on the replication of the HCV RNA: no influence
[1]
  synthesis of cellular RNA: inhibited
